Test results: patent US4238620A, “Dibenz[b,f]oxepin and dibenzo[b,f]thiepin derivatives, process for preparation thereof, method of using the same, and compositions thereof” (priority 1978, dated 1980)
Like-named read-outs stand apart in the source and are kept apart here.

Assays:
[1] = tested on: Felt pellet-induced granuloma formation in rats; assay: Felt pellet-induced granuloma formation in rats (FGF method), subacute and chronic inflammation; assay type: in vivo; settings: Rattus norvegicus, po, read-out: Minimum Effective Dose, subacute and chronic inflammation, FGF*
Description: (§1) (2) Effect on subacute and chronic inflammations:
(b) Felt pellet-induced granuloma formation in rats (FGF method)
The test was carried out according to the method described in J. Amer. Pharm. Assoc., 46, 515 (1957) and Chem. Pharm. Bull., 23, 1446 (1975).

[2] = tested on: Ultraviolet-induced erythema in guinea-pigs; assay: Ultraviolet-induced erythema in guinea-pigs (UVE method), acute inflammation; assay type: in vivo; settings: Cavia porcellus, po, read-out: Anti-inflammatory activity ED50, acute inflammation, UVE
Description: (§2) (1) Effect on acute inflammation:
(b) Ultraviolet-induced erythema in guinea-pigs (UVE method)
The test was carried out according to the method described in Arch. Int. Pharmacodyn. Ther., 116, 261 (1958).

[3] = in vivo; settings: rat, po
[4] = tested on: Carrageenin-induced hind paw oedema in rats; assay: Carrageenin-induced hind paw oedema in rats (CAR method), acute inflammation; assay type: in vivo; settings: Rattus norvegicus, po, read-out: Anti-inflammatory activity ED50, acute inflammation, CAR
Description: as §2
(a) Carrageenin-induced hind paw oedema in rats (CAR method)
The test was carried out according to the method described in Proc. Soc. Exp. Biol. Med., 111, 544 (1962).

[5] = tested on: AgNO3-induced joint pain in rats; assay: AgNO3-induced joint pain in rats (AGP method), analgesic activity; assay type: in vivo; settings: Rattus norvegicus, po, read-out: Analgesic activity ED50, AGP
Description: (§3) TEST 2. ANALGESIC ACTIVITY
(a) AgNO3 -induced joint pain in rats (AGP method)
The test was carried out according to the method described in J. Pharmacol. Expt. Ther., 98, 19 (1950)

[6] = tested on: Yeast-induced fever in rats; assay: Yeast-induced fever in rats (YEF method), antipyretic activity; assay type: in vivo; settings: Rattus norvegicus, po, read-out: Antipyretic activity ED50, YEF
Description: TEST 3. ANTIPYRETIC ACTIVITY
Yeast-induced fever in rats (YEF method)
The test was carried out according to the method described in Arzneim. Forsch., 13, 338 (1963).

[7] = tested on: adjuvant-induced arthritis in rats; assay: Therapeutic activity on adjuvant-induced arthritis in rats (AAT method), subacute and chronic inflammation; assay type: in vivo; settings: Rattus norvegicus, po, read-out: Minimum Effective Dose, subacute and chronic inflammation, AAT*
Description: as §1
(a) Therapeutic activity on adjuvant-induced arthritis in rats (AAT method)
The test was carried out according to the method described in Brit. J. Pharmacol., 21, 127 (1963) and Japan J. Pharmacol., 23, 58 (1973).

[8] = Gastrointestinal ulcer formation in fed rats (ulcerogenicity); assay type: in vivo; settings: rat, in vivo, po, fed rats; read-out: UD50 (50% ulcer forming dose)
Description: (§4) TEST 4. ULCEROGENICITY IN GASTROINTESTINAL TRACT
(§5) Gastrointestinal ulcer formation in fed rats
(§6) The test was carried out according to the method described in Science, 170, 183 (1970).

[9] = in vivo; settings: rat, po; remark: listed apart in the source
Description: (§7) (b) Repeated administrations in rats
(§8) Test compounds were orally administered once daily for 5 days, and LD50 -value was calculated from the mortality on the 6th day.

[10] = tested on: rats; assay: Overall comparison of lethal toxicity (Test 5); assay type: in vivo; settings: for toxicity compared with indomethacin (in words): vs indomethacin
Description: (a) Single administration in rats
as §7, §8

[11] = Overall comparison of anti-inflammatory, analgesic and antipyretic activities (Tests 1 to 3); assay type: in vivo, rats; guinea-pigs; settings: for anti-inflammatory, analgesic and antipyretic activities compared with indomethacin: vs indomethacin (compound 3)
From the text: (§9) From these diagrams, the correlation between the pharmacological activity of each compound and its ulcerogenicity and toxicity, i.e. the safety margin of each compound, can be clearly seen. In these Figures, the lines and letters have the following meanings:
(§10) The following conclusions can be drawn from Tables I to III and FIGS. 1 and 2. In the following description, the therapeutic index means LD50 /ED50 (or MED), and the safety index means UD50 /ED50 (or MED). The safety margin of a given compound is broader when it has larger therapeutic and or safety indices.

[12] = assay type: in vivo; settings: for therapeutic index compared with indomethacin: vs indomethacin
From the text: In the following description, the therapeutic index means LD50 /ED50 (or MED), and the safety index means UD50 /ED50 (or MED).

[13] = tested on: Acetic acid (AcOH)-induced writhing in rats; assay: Acetic acid (AcOH)-induced writhing in rats (ACW method), analgesic activity; assay type: in vivo; settings: Rattus norvegicus, po, read-out: Analgesic activity ED50, ACW
Description: as §3
(b) Acetic acid (AcOH)-induced writhing in rats (ACW method)
The test was carried out according to the method described in Arzneim. Forsch., 25, 1505 (1975).

[14] = Safety index (UD50/ED50 or MED), separation of activity from ulcerogenicity; assay type: in vivo; settings: for separation of anti-inflammatory, analgesic and antipyretic activities from ulcerogenicity: FIGS. 1 and 2, vs indomethacin
From the text: as §9, §10

[15] = tested on: Gastrointestinal ulcer formation in fed rats; assay: Gastrointestinal ulcer formation in fed rats (ulcerogenicity); assay type: in vivo; settings: fraction of that of compound 2
Description: as §4, §5, §6

[16] = rats, single administration, 7th day, read-out: LD50 Single
[17] = rats, once daily for 5 days, mortality on 6th day, read-out: LD50 Repeated

| Compound | minimal effective dose [1] | ED50 [2] | LD50 at 168 h [3, 16] | ED50 [4] | ED50 [5] | ED50 [6] | minimal effective dose [7] | TD50 [8] | LD50 at 144 h [9, 17] | toxicity compared with indomethacin (in words) [10] | ED50 [13] | ED50 ([4]; rats, CAR method) | further results |
| --- | --- | --- | --- | --- | --- | --- | --- | --- | --- | --- | --- | --- | --- |
| CC(C(=O)O)c1ccc2c(c1)C(=O)Cc1ccccc1O2 (stereo not drawn) [compound 1, 2-(10,11-dihydro-11-oxodibenz[b,f]oxepin-2-yl)propionic acid, reference compound] | 3 mg/kg/day | 0.93 mg/kg | 106 mg/kg | 3.65 mg/kg | 5.8 mg/kg | 0.062 mg/kg | 1 mg/kg/day | 4.85 mg/kg |  |  |  |  |  |
| Cc1ccc2c(c1)CC(=O)c1cc(C(C)C(=O)OCCOCCO)ccc1S2 (racemic) [compound G, 2-(2-Hydroxyethoxy)ethyl dl-2-(8-methyl-10,11-dihydro-11-oxodibenzo[b,f]thiepin-2-yl)propionate] |  | 2.52 mg/kg |  | 5.94 mg/kg | 0.96 mg/kg | 0.041 mg/kg | ≤ 0.2 mg/kg/day | 2.94 mg/kg | > 16 mg/kg | far weaker than those of indomethacin | 0.33 mg/kg |  | toxicity relative to compound 2 ([10]; fraction of that of compound 2): less than 1/7; analgesic activity compared with compounds 2 and C ([11]; AGP, ACW, vs compounds 2 and C): stronger than those of compounds 2 and C; antiinflammatory and antipyretic activities compared with compounds 2 and C ([11]; vs compounds 2 and C): weaker than those of compounds 2 and C; anti-inflammatory, analgesic and antipyretic activities compared with indomethacin [11]: equivalent or superior to those of indomethacin; average therapeutic index relative to compound 2 ([12]; LD50/ED50 (or MED), vs compound 2): more than 8 times; breadth of safety margin compared with compound 2 ([12]; safety margin, vs compound 2): far superior to compound 2; therapeutic index compared with indomethacin [12]: far larger therapeutic indices than indomethacin; separation of anti-inflammatory, analgesic and antipyretic activities from ulcerogenicity [14]: more separated from ulcerogenicity in the gastrointestinal tract than in indomethacin; average safety index relative to compound 2 ([14]; UD50/ED50 (or MED), vs compound 2): about 5 times; ulcerogenicity relative to compound 2 [15]: about 1/5 |
| COc1ccc2c(c1)c(CC(=O)O)c(C)n2C(=O)c1ccc(Cl)cc1 [compound 3, indomethacin, reference compound] | 2 mg/kg/day | 9.12 mg/kg | 18.5 mg/kg | 3.3 mg/kg | 4.1 mg/kg | 0.223 mg/kg | 0.2 to 0.4 mg/kg/day | 3.95 mg/kg | ~5 mg/kg |  | 0.44 mg/kg |  |  |
| Cc1ccc2c(c1)CC(=O)c1cc(CC(=O)OCCOCCO)ccc1O2 [compound F, 2-(2-Hydroxyethoxy)ethyl 8-methyl-10,11-dihydro-11-oxodibenz[b,f]oxepin-2-acetate] |  |  |  |  |  |  |  |  |  |  |  | 7.95 mg/kg |  |
| Cc1ccc2c(c1)CC(=O)c1cc(CC(=O)O)ccc1O2 [compound B, 8-Methyl-10,11-dihydro-11-oxodibenz[b,f]oxepin-2-acetic acid] |  |  |  |  |  |  |  |  |  |  |  | 2.2 mg/kg | minimal effective dose ([1]; rats, FGF method): 20 mg/kg/day; activity on acute inflammation and fever compared with indomethacin ([11]; acute inflammation and fever, vs indomethacin): nearly comparable to that of indomethacin; ED50 ([2]; guinea-pigs, UVE method): 4.48 mg/kg; ED50 ([6]; rats, YEF method): 0.357 mg/kg |
| CC(C(=O)OCCOCCO)c1ccc2c(c1)C(=O)Cc1ccccc1O2 (racemic) [compound D, 2-(2-Hydroxyethoxy)ethyl dl-2-(10,11-dihydro-11-oxodibenz[b,f]oxepin-2-yl)propionate] |  |  |  |  |  |  |  |  |  | far weaker than those of indomethacin |  | 2.87 mg/kg | LD50 at 144 h [9]: > 24 mg/kg; minimal effective dose ([1]; rats, FGF method): 6 mg/kg/day; activity on subacute and chronic inflammation compared with indomethacin ([11]; AAT and FGF, vs indomethacin): inferior to that of indomethacin; anti-inflammatory (acute), analgesic and antipyretic activities compared with indomethacin ([11]; acute inflammation, analgesic, antipyretic, vs indomethacin): almost equivalent to those of indomethacin; pharmacological activities compared with compound 1 ([11]; vs compound 1): comparable to those of compound 1; ED50 ([2]; guinea-pigs, UVE method): 1.5 mg/kg; LD50 at 168 h [3]: 260 mg/kg; ED50 ([13]; rats, ACW method): 1.06 mg/kg; ED50 ([5]; rats, AGP method): 4.6 mg/kg; ED50 ([6]; rats, YEF method): 0.112 mg/kg; minimal effective dose ([7]; rats, AAT method): 1 mg/kg/day |
| Cc1ccc2c(c1)CC(=O)c1cc(C(C)C(=O)O)ccc1O2 (racemic) [compound A, dl-2-(8-Methyl-10,11-dihydro-11-oxodibenz[b,f]oxepin-2-yl)propionic acid] | 2 mg/kg/day | 0.3 mg/kg | 147 mg/kg | 3.38 mg/kg | 2.6 mg/kg | 0.021 mg/kg | 0.2 mg/kg/day | 2.97 mg/kg | > 12 mg/kg | far weaker than those of indomethacin | 0.28 mg/kg |  | toxicity relative to compound 1 ([10]; vs compound 1): less toxic than compound 1; pharmacological activities compared with compound 1 ([11]; vs compound 1): stronger pharmacological activities in all the methods tested; pharmacological potency and/or safety margin compared with compound 1 ([11]; vs compound 1): superior to compound 1 not only in pharmacological activities but also in safety margin; anti-inflammatory, analgesic and antipyretic activities compared with indomethacin [11]: equivalent or superior to those of indomethacin; average therapeutic index relative to compound 1 ([12]; LD50/ED50 (or MED), vs compound 1): about 3.7 times; therapeutic index compared with indomethacin [12]: far larger therapeutic indices than indomethacin; separation of anti-inflammatory, analgesic and antipyretic activities from ulcerogenicity [14]: more separated from ulcerogenicity in the gastrointestinal tract than in indomethacin; average safety index relative to compound 1 ([14]; UD50/ED50 (or MED), vs compound 1): about 1.6 times |
| CC(C(=O)O)c1ccc2c(c1)C(=O)Cc1ccccc1S2 (stereo not drawn) [compound 2, 2-(10,11-dihydro-11-oxodibenzo[b,f]thiepin-2-yl)propionic acid, reference compound] | 0.25 mg/kg/day | 0.98 mg/kg |  | 1.2 mg/kg | 1.66 mg/kg | 0.022 mg/kg | < 0.1 mg/kg/day | 0.62 mg/kg | 2.15 mg/kg |  | 1.16 mg/kg |  |  |
